Results on 25 molecules are retold here after patent US9988373B2, “Nitrogen-containing six-membered cyclic derivatives and pharmaceutical composition comprising the same” (SHIONOGI & CO., LTD., priority 2013, dated 2018).

pIC50: −log10 of the molar value.

In one test the target is T1, human P2X7 receptor (Homo sapiens, UniProt Q99572, R270H).
T1 construct: expressed in transfected cells
T1 sequence (Q99572 1-595 R270H): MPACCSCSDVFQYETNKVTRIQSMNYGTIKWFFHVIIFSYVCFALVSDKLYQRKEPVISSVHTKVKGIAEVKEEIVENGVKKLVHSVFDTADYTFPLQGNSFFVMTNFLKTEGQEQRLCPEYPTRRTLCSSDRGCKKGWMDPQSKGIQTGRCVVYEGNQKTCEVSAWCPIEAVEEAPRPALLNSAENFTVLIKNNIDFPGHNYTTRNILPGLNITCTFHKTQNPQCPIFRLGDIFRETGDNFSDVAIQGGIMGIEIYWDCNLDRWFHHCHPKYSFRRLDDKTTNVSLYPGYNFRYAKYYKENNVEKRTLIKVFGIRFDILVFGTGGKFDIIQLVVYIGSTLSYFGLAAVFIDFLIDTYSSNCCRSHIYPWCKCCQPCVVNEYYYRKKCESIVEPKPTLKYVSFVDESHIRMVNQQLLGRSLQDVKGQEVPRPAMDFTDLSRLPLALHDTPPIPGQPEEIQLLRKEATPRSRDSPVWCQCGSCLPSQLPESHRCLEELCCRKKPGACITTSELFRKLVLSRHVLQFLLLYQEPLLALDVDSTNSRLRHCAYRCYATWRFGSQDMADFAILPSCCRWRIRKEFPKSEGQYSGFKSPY
The test is described as follows: Evaluation of a human P2X7 receptor inhibitory activity (Yo-Pro uptake, BzATP stimulation, FLIPR TETRA). It counts as cell-based. The settings on record: antagonistic activity for the human P2X7 receptor, 1321N1 cell transfected with the human P2X7 receptor gene, Yo-Pro fluorescence. The method, boiled down:
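1321N1 cells stably expressing human P2X7 (NM_002562.5 with T606C and G952A SNPs), in HEPES-buffered HBSS pH 7.4-7.5; Yo-Pro uptake stimulated with BzATP, compound added 8 min later, fluorescence followed 20 min on FLIPR. Max–min signal normalised to vehicle (0%) and reference compound (100%); IC50 by logistic fit.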
One may read the pIC50 as −log10 of the IC50, conventionally taken in molar units. As to `COc1cn(Cc2ccccc2)c(-c2ccc(Cl)cc2Cl)nc1=O` [II-082], the pIC50 is 6.72. Same read-out and setting: under `O=c1cc(-c2cccc(C(F)(F)F)c2Cl)n(Cc2ccccc2)cn1` [III-001] stands 6.96. Same read-out and setting: the figure for `O=c1cnn(Cc2ccccc2)c(-c2cccc(C(F)(F)F)c2Cl)c1` [III-002] is 6.96.

Staying with this test, now noted: antagonistic activity for the human P2X7 receptor, 1321N1 cell transfected with the human P2X7 receptor gene, Yo-Pro fluorescence, class symbols.
Take `COc1cccc(-c2nc(=O)c(OC)cn2Cc2ccccc2)c1Cl` [II-079]: the negative logarithm of the IC50 (pIC50) is 5.00 to 6.00. In turn, `O=c1nc(-c2cccc(C(F)(F)F)c2Cl)n(Cc2ccccc2)cc1Oc1ccccc1` [II-080] gave a pIC50 of 7.00 to 7.30. Same read-out and setting: the figure for `COc1cn(Cc2ccccc2)c(-c2cccc(Cl)c2C)nc1=O` [II-081] is 6.00 to 6.30. As to `COc1cn(Cc2ccccc2)c(-c2cccc(Cl)c2C(F)(F)F)nc1=O` [II-083], the pIC50 was 7.00 to 7.30.

Consider `COc1cn(Cc2ccccc2)c(-c2ccc(Cl)c(Cl)c2)nc1=O` [II-084], for which the pIC50 is 6.30 to 7.00. Consider `N#CCn1cc(OCc2ccccc2)c(=O)nc1-c1cccc(C(F)(F)F)c1Cl` [II-085], for which the pIC50 was more than 7.30. In turn, `COc1cccc(Cn2cc(OC)c(=O)nc2-c2cccc(C(F)(F)F)c2Cl)c1` [II-086] had a pIC50 of more than 7.30.

Turning to `COc1ccccc1Cn1cc(OC)c(=O)nc1-c1cccc(C(F)(F)F)c1Cl` [II-087], the pIC50 is more than 7.30. `COc1cn(Cc2ccccc2)c(-c2ccc(C(F)(F)F)cc2Cl)nc1=O` [II-088] showed a pIC50 of 6.00 to 6.30. For `Cc1ccccc1Cn1cc(OCC(F)(F)F)c(=O)nc1-c1cccc(C(F)(F)F)c1Cl` [II-089], the pIC50 is more than 7.30. Consider `Cc1ccccc1Cn1cc(OCC#N)c(=O)nc1-c1cccc(C(F)(F)F)c1Cl` [II-090], for which the pIC50 is more than 7.30. As to `Cc1ccccc1Cn1cc(C#N)c(=O)nc1-c1cccc(C(F)(F)F)c1Cl` [II-091], the pIC50 was more than 7.30.

On to `COc1ccccc1Cn1cc(C#N)c(=O)nc1-c1cccc(C(F)(F)F)c1Cl` [II-092], for which the pIC50 was more than 7.30.

With `COc1ccccc1Cn1cc(F)c(=O)nc1-c1cccc(C(F)(F)F)c1Cl` [II-093], the pIC50 is more than 7.30. On the same count and under the same terms, the figure for `COc1cn(Cc2cccnc2C(F)(F)F)c(-c2cccc(C(F)(F)F)c2Cl)nc1=O` [II-094] is 6.30 to 7.00.

Molecule `COc1cn(Cc2ccccc2Cl)c(-c2cccc(C(F)(F)F)c2Cl)nc1=O` [II-095] gave a pIC50 of more than 7.30. On the same count and under the same terms, the figure for `COc1cn(Cc2ccc(Cl)cc2)c(-c2cccc(C(F)(F)F)c2Cl)nc1=O` [II-096] is 6.30 to 7.00; for `COc1cn(Cc2ccccc2OC(F)(F)F)c(-c2cccc(C(F)(F)F)c2Cl)nc1=O` [II-097] it is more than 7.30; for `COc1cn(Cc2ccccc2SC(F)(F)F)c(-c2cccc(C(F)(F)F)c2Cl)nc1=O` [II-098] it is 6.30 to 7.00. The same measure, in the same setting: the figure for `COc1cn(Cc2ccccc2C(F)(F)F)c(-c2cccc(C(F)(F)F)c2Cl)nc1=O` [II-099] is more than 7.30; for `COc1cn(Cc2cccc(Cl)c2)c(-c2cccc(C(F)(F)F)c2Cl)nc1=O` [II-100] it is 7.00 to 7.30; for `COc1cn(Cc2ccccc2)c(-c2cc(Cl)ccc2Cl)nc1=O` [II-101] it is 5.00 to 6.00.
